# Assay results: patent US9650380B2, “Difluoromethylene compound” (SATO PHARMACEUTICAL CO., LTD., priority 2012, dated 2017)
# pIC50: −log10 of the molar value.
# Target: T1, human URAT1 (Homo sapiens, UniProt Q96S37)
# T1 construct: Human URAT1 full-length cDNA was introduced to an expression vector pcDNA5/FRT/V5-His TOPO; expressed in transfected cells
# T1 sequence (Q96S37 1-553): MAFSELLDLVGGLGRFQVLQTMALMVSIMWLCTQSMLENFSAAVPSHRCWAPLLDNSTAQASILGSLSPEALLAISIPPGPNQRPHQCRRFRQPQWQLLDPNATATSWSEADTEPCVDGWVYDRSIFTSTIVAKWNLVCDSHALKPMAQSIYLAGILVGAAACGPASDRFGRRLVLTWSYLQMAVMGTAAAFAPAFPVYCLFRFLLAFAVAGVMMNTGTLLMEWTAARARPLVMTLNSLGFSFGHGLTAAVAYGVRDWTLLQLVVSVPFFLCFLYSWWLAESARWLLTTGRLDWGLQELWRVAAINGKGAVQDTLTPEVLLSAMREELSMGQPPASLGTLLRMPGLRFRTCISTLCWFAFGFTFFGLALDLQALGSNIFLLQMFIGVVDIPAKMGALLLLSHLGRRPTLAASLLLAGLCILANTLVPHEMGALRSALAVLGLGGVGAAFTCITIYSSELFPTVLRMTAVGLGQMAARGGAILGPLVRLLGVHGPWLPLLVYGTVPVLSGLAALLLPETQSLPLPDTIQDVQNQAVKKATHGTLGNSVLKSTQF
# Assay: Test for uric acid transport inhibition using human URAT1 expression cells
# Assay type: cell-based
# Conditions: human URAT1 stable expression CHO cells; 14C-labeled uric acid 38 μM final; incorporation 5 minutes at room temperature; 100% window defined with benzbromarone 100 μM; read-out: URAT1 inhibitory activity (IC50)
# Experimental: In this Example, it was evaluated whether the Example compound and the Reference example compound mentioned below has the URAT1 inhibitory activity.
# Human URAT1 full-length cDNA was introduced to an expression vector pcDNA5/FRT/V5-His TOPO (registered trademark) (Invitrogen Corporation). The obtained expression plasmid was introduced to Chinese hamster ovary cell (hereinafter referred to as the CHO cell) by the liposome method using Lipofectamine LTX (Invitrogen) and cultured in a selection medium including hygromycin, whereby to prepare human URAT1 stable expression cell.
# The human URAT1 expression CHO cell were cultured using D-MEM/F-12 (1:1) mixed medium including 10% bovine fatal serum and hygromycin at 37° C. in the presence of 5% CO2. The cells were seeded onto a 96-well plate (Corning Incorporated) at 0.8×10^5 cells/well, and after 24 hours, the test for uric acid transport inhibition below was performed.
# The medium was removed by aspiration, and then the cells were washed once with an assay buffer including 125 mM of sodium gluconate, 4.8 mM of potassium gluconate, 1.2 mM of potassium dihydrogen phosphate, 1.2 mM of magnesium sulfate, 1.3 mM of calcium gluconate and 5.6 mM of glucose, 50 μL assay buffer including the test compound in various concentrations was added, and further 50 μL assay buffer including a radioactive ligand (uric acid labeled with ^14C; 38 μM final concentration) was added, and incorporation reaction was performed at room temperature for 5 minutes. Immediately after the completion of the reaction, the reaction mixture was washed twice with 100 μL ice-cold assay buffer, and 100 μL of 0.1N sodium hydroxide was added. The reaction mixture was stirred to lyse the cells, and 4 mL of Hionic-Fluor (Packard BioScience CO.) was added, and then the radioactivity was measured with a liquid scintillation counter (Beckman Coulter, Inc. and Packard BioScience CO).
# The radioactivitiy when each concentration of the test compound was added (uric acid incorporation activity, %) was calculated in which the difference of the radioactivity when the test compound was not added (DMSO added) and the radioactivity when a positive control compound, benzbromarone (a known URAT1 inhibitor) was added in 100 μM, was taken as 100%, and the concentration of the test compound when the uric acid incorporation activity was inhibited to 50% (IC50) was obtained.
row,SMILES,pIC50
1,"Cc1cccc(C(N)=O)c1Cn1nc(C)c2ccc(C(F)(F)c3nnn[nH]3)nc21 [example 110, 2-{6-[difluoro(1H-tetrazol-5-yl)methyl]-3-methyl-1H-pyrazolo[3,4-b]pyridin-1-ylmethyl}-3-methylbenzamide]",7.36
2,"Cc1nn(Cc2c(C(N)=O)cccc2C2CC2)c2nc(C(F)(F)c3nnn[nH]3)ccc12 [example 116, 3-cyclopropyl-2-{6-[difluoro(1H-tetrazol-5-yl)methyl]-3-methyl-1H-pyrazolo[3,4-b]pyridin-1-ylmethyl}benzamide]",7.44
3,"Cc1cccc(C#N)c1Cn1nc(CO)c2ccc(C(F)(F)C(=O)O)cc21 [example 121, [1-(2-cyano-6-methylbenzyl)-3-hydroxymethyl-1H-indazol-6-yl]difluoroacetic acid]",6.57
